The values that follow come from patent US5198568A, “Compounds useful in enzymatic resolution systems and their preparation” (priority 1991, dated 1993).

Common to all, as to format: biochemical
Series [1] concerns the target T1, Protease VIII, Subtilopeptidase A (subtilisin Carlsberg) (Sigma, Enzyme B) (Bacillus licheniformis, UniProt P00780).
T1 sequence (P00780 106-379): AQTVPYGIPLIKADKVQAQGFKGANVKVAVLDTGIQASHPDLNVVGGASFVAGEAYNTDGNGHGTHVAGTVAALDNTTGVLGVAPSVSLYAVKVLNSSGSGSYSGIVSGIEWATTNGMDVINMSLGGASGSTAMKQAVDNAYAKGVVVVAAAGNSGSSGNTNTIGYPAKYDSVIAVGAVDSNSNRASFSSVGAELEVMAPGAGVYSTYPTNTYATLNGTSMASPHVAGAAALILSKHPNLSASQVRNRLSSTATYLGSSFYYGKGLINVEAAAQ
Briefly: pH-stat rate of hydrolysis of single enantiomers, Enzyme B. The conditions noted are these: 50 mM single enantiomer, 50 mM buffer pH 7.6, enzyme B. The protocol:
15 ml of a solution containing one enantiomer of the ester at a concentration of 50 mM, and Na3 PO4 buffer at 50 mM and pH 7.6 wa observed using pH stat device 0.1 ml of a 50 mg/ml solution of enzyme B, made up from
(§1) the commercially available preparation in 50 mM Na3 PO4 buffer at pH 7.6, were added. Rates of hydrolysis of both enantiomers of the ester compound were determined for the enzyme. The ratio of the rates of hydrolysis for the two enantiomers for the two enantiomers with respect to the enzyme indicate the stereospecificity of that enzyme's hydrolytic action on the racemic mixture of the ester. No evidence for the hydrolysis of the acetylthio ester portion of the substrate molecule was found.

In series [2] the test system is Protease XXIV, bacterial protease (Sigma, Enzyme J). Briefly: pH-stat rate of hydrolysis of single enantiomers, Enzyme J. As to conditions: 50 mM single enantiomer, 50 mM buffer pH 7.6, enzyme J. How it is done: as §1, with “15 ml of a solution containing one enantiomer of the ester at a concentration of 50 mM, and Na3 PO4 buffer at 50 mM and pH 7.6 was observed using a pH stat device. 0.1 ml of a 50 mg/ml solution of Enzyme J, made up from the commercially” for “the commercially”

The test system of series [3] is Protease XIV from Streptomyces griseus (Sigma, Enzyme I). In words: pH-stat rate of hydrolysis of single enantiomers, Enzyme I. The conditions noted are these: 50 mM single enantiomer, 50 mM buffer pH 7.6, enzyme I. How it is done: as §1, with “15 ml of a solution containing one enantiomer of the ester at a concentration of 50 mM, and Na3 PO4 buffer at 50 mM and pH 7.6 was observed using a pH stat device. 0.1 ml of a 50 mg/ml solution of protease enzyme I, made up from the commercially” for “the commercially”, “for the protease enzyme. The” for “for the enzyme. The”

The subject of series [4] is Protease XXIII from Aspergillus oryzae (Sigma, Enzyme A). In words: pH-stat rate of hydrolysis of single enantiomers, Enzyme A. As to conditions: 50 mM single enantiomer, 50 mM buffer pH 7.6, enzyme A. The protocol:
15 ml of a solution containing one enantiomer of the ester at a concentration of 50 mM, and Na3 PO4 buffer at 50 mM and pH 7.6 was observed using a pH stat device. 0.1 ml of a 50 mg/ml solution of enzyme A, made up from
Rates of hydrolysis of both enantiomers of the ester compound were
determined for the enzyme. The ratio of the rates of hydrolysis for the
two enantiomers for the two enantiomers with respect to the enzyme
indicate the stereospecificity of that enzyme's hydrolytic action on the […]

Series [5] concerns the target T2, Protease XXVII, Nagarse (Sigma, Enzyme D) (Bacillus amyloliquefaciens, UniProt P00782).
T2 construct: purchased Sigma
T2 sequence (P00782 108-382): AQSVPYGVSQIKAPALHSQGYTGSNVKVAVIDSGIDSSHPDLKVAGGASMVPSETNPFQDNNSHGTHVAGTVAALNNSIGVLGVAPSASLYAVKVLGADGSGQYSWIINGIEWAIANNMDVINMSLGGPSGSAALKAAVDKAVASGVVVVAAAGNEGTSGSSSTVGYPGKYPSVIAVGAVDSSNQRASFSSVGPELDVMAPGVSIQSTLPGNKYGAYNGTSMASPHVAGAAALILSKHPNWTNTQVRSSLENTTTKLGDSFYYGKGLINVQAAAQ
In words: pH-stat rate of hydrolysis of single enantiomers, Enzyme D. As to conditions: 50 mM single enantiomer, 50 mM buffer pH 7.6, enzyme D. The protocol:
as §1, with “15 ml of a solution containing one enantiomer of the ester at a concentration of 50 mM, and Na3 PO4 buffer at 50 mM and pH 7.6 was observed using a pH stat device. 0.1 ml of a 50 mg/ml solution of enzyme D, made up from the commercially” for “the commercially”, “of the thioacetyl ester portion” for “of the acetylthio ester portion”

The subject of series [6] is protease Prozyme 6 from Aspergillus oryzae (Amano, Enzyme F). Briefly: Homogeneous aqueous enzymatic resolution (ester hydrolysis), Enzyme F. How it is done: (§2) The enzymatic reaction mixtures were capped and briefly shaken until all the substrate had dissolved, and the enzyme had completely dissolved or dispersed. […] Evaporation of the ether left a white solid. Rotations were measured at c=1 in CHCl3.
as §2
The reaction was started by adding 100 mg of the protease (F) from the fungus Aspergillus oryzae (from Amano Enzyme Corporation, Prozyme 6, 60,000 units per mg of solid).
After 20 hours at room temperature, the solution was acidified to pH 2 and extracted with 3 volumes of diethyl ether. The aqueous phase was saved for subsequent workup. The ether phase was washed with two volumes of distilled water and then one volume of saturated sodium chloride, and then it was dried over MgSO4 and subsequently evaporated to dryness. The resolved ibuprofen product recovered was 930 mg of white powder, indicating 45% conversion of racemic ester to acid. The optical rotation was -0.580° (measured at c=1 in ethanol), indicating the R isomer of ibuprofen.
35 mg of protease Enzyme F, as the commercial preparation Prozyme 6, were added to the aqueous solution. The reaction flask was capped, and briefly shaken until all the enzyme had dissolved or dispersed. […] The resulting mixture was diluted with one volume of water and was extracted with diethyl ether (2 times 200 ml). The ether layers were combined and backwashed with water (2 times 200 ml), saturated NaCl solution (200 ml), and then dried over MgSO4.
In this control run, a 0.5M ester solution of (1) was prepared in 325 ml of 0.1M sodium phosphate buffer (pH 7.0). The reaction was started by adding 3 gm of the above enzyme (F). The pH was controlled at 7.0 with 8.22M sodium hydroxide. After 6.49 hours at 30 ° C., 6.63 ml of hydroxide were added, indicating 37.7% conversion. The reaction was allowed to continue overnight and, after 23.1 hours, a total of 7.2 ml of sodium hydroxide were added, indicating 40.9% conversion.

Series [7] addresses T2, Protease XXVII, Nagarse (Sigma, Enzyme D). In words: Homogeneous aqueous enzymatic resolution (ester hydrolysis), Enzyme D. As to conditions: 100 mg enzyme D, 10 mmol ester in 100 ml 0.2 M phosphate buffer pH 7.0, 20-22 C, 20 hours.
The subject of series [8] is protease Prozyme 6 from Aspergillus oryzae (Amano, Enzyme F). Briefly: Asymmetric hydrolysis in an extractive dispersion reactor, Enzyme F. The conditions noted are these: 100 mg Prozyme 6, 3.38 gm ester in 100 ml buffer pH 7.0 plus 100 ml hexane, room temperature, 3.5 hours. How it is done: In this Example, the hexane was dispersed in the reaction vessel to extract the inhibitory ibuprofen acid as it is formed. The reaction was started by adding 100 mg of the protease from the fungus Aspergillus oryzae (from Amano Enzyme Corporation, Prozyme 6, 60,000 units per mg of solid).
After 3.5 hours at room temperature with vigorous stirring, the solution was acidified to pH 2 and extracted with 2 volumes of hexane. The aqueous phase was saved for subsequent workup. The hexane phase was dried over MgSO4 and evaporated to dryness. The resolved ibuprofen product so recovered consisted of 490 mg of white powder, indicating 24% conversion. The optical rotation was -0.568° (c=1.015 in ethanol), indicating the R isomer of ibuprofen.

Series [9] has as its system Protease XXIII from Aspergillus oryzae (Sigma, Enzyme A). In words: Homogeneous aqueous enzymatic resolution (ester hydrolysis), Enzyme A. The conditions noted are these: acid product; 100 mg enzyme A, pH 7.0, 20-22 C, 20 hours. The protocol: No further purification was performed.
Series [10] relates to protease Prozyme 6 from Aspergillus oryzae (Amano, Enzyme F). Briefly: Asymmetric hydrolysis in an extractive membrane reactor, enzyme not associated with the membrane, Enzyme F. The source says:
Hexane was recirculated through the lumen or bores of the fibers in the module. The aqueous solution in the shell contained the enzyme and ester. While the cellulose membrane is water-wet, the membrane rejects the macromolecular enzyme (molecular weight 18,000). Therefore, the enzyme resides solely in the aqueous ester solution. As the ibuprofen acid was formed, it was extracted into the hexane phase, thereby reducing the effect of product (ibuprofen acid) inhibition on the activity of the enzyme.
The aqueous phase used to extract the ibuprofen acid from hexane in this module contained 0.1M sodium carbonate buffer at pH 9.5. The pH was maintained at this value by the addition of 8.22M sodium hydroxide as required.
In this Example, the aqueous stream in the extractive membrane reactor module consisted of a solution of the sulfomethyl ester of ibuprofen (1), which solution was prepared by adding 32.51 gm of the sodium salt of the ester (at 75% chemical purity) to 1000 ml of 0.1M sodium phosphate buffer (pH 7.0). The reaction was started by adding 2 gm of the protease (F) from the fungus Aspergillus oryzae (from Amano Enzyme Corporation, Prozyme 6, 60,000 units per gm of solid). […]
The optical rotation of the recovered product was measured by polarimetry; the experimentally determined value for [α]D was -56.7° (measured at c=0.815 in ethanol), thereby indicating the R isomer of ibuprofen. The sample was also analyzed by chiral HPLC using a Bakerbond DNBPG (covalent) column (4.6×250 mm), with 96.9% hexane:3.0% 2-propanol:0.1% acetonitrile as the mobile phase at 2 ml/min after derivatization with naphthalene amine. […] The optical purity or enantiomeric excess of this R ibuprofen sample as determined by this chiral HPLC procedure was 99.3% (i.e., enantiomeric excess of R ibuprofen).
The aqueous phase at pH 7.0 (as recovered from the extractive membrane reactor) was mixed with 280 gm of sodium chloride to salt out the remaining unconverted ester. […] The optical rotation (as measured by polarimetry) was [α]D =+57.4° (c=1.29 in ethanol), indicating the S isomer of ibuprofen. […]

The test system of series [11] is lipase from Candida cylindracea (Meito Sangyo, Lipase OF). Briefly: Activity of the carrier lipase against the ester.
The mark [12] stands for this setting: chiral HPLC, after 50% conversion.

Where a name gives a salt, the structure may show the parent alone. Where only a bound is given, the exact number is not on record here.

In the case of `CC(=O)SC[C@H](C)C(=O)OCS(=O)(=O)O` [Compound 15, Potassium Salt of the Sulfomethyl Ester of L-(+)-S-3-Acetylthio-2-methylpropanoic Acid], the Rate of hydrolysis stood at 135 umols/hr/mg in series [1]; 65 umols/hr/mg in [2]; 105 umols/hr/mg in series [3]; 12 umols/hr/mg in [4]; 29 umols/hr/mg in series [5].

With `CC(C)Cc1ccc(C(C)C(=O)OCS(=O)(=O)O)cc1` (racemic) [Compound 1, Sodium Salt of 4-Sulfomethyl Ester of 2-(4-Isobutylphenyl)propanoic Acid], in [6] (100 mg Prozyme 6 (F), 3.22 gm ester in 100 ml 0.2M sodium phosphate pH 7.0, room temperature, 20 hours), the “conversion of racemic ester to acid” value is given as 45%. For the same molecule, the conversion in series [6] (0.5M ester, 3 gm enzyme F, pH 7.0, 30 C, after 23.1 hours, 500000 µM) is reported as 40.9%. Further, the “% CONVERSION” value in [7] is reported as 34.0%. In addition, the conversion in series [8] worked out at 24%. For the same molecule, the “% e.e.” value in series [9] is given as over 99%. For the same molecule, the “conversion of the racemic ester to ibuprofen acid” value in series [10] (2 gm Prozyme 6, 32.51 gm ester in 1000 ml 0.1M sodium phosphate pH 7.0, hexane extractant, room temperature, 6.3 hours) amounted to 50%. For the same molecule, in [10] (setting [12]), the “enantiomeric excess of R ibuprofen (acid product)” value worked out at 99.3% and the “enantiomeric excess of S ibuprofen (from unconverted ester hydrolyzed at pH 12)” value is reported as 98.9%. Besides, in series [11], the “activity of the lipase against the ester” value is “inactive”.

For the molecule `CC(=O)SC[C@@H](C)C(=O)OCS(=O)(=O)O` [Compound 14, Potassium Salt of the Sulfomethyl Ester of D-(-)-S-3-Acetylthio-2-methylpropanoic Acid], the Rate of hydrolysis in series [1] is 65 umols/hr/mg; in series [2], 61 umols/hr/mg; in [3] it was 63 umols/hr/mg; in series [4], 5.3 umols/hr/mg; in series [5], 27 umols/hr/mg.
